In patent US20190231768A1, “P[…] TREATING DRUG INDUCED DYSKINESIAS” (PRILENIA THERAPEUTICS DEVELOPMENT LTD., priority 2017, published 2019):
Like-named read-outs stand apart in the source and are kept apart here.

What was measured:
5-HT6 = 5-HT6 (Homo sapiens, UniProt P50406)
Procedure: (§1) NMDA, 5-HT6 and tachykinin NK1 receptors along with the dopamine transporter (DAT), norepinephrine transporter (NET) and serotonin transporter (SERT). The specific ligand binding to the receptors was defined as the difference between the total binding and the nonspecific binding determined in the presence of an excess of unlabeled ligand. IC50 values were determined by a non-linear, least squares regression analysis using MathIQ™ (ID Business Solutions Ltd., UK). […] Hill coefficient (nH), defining the slope of the competitive binding curve, was calculated using MathIQ™.

Adrenergic α2A = Adrenergic α2A (Homo sapiens, UniProt P08913)
Procedure: as §1

Adrenergic α2C = Adrenergic α2C (Homo sapiens, UniProt P18825)
Procedure: as §1

Dopamine D2 = Dopamine D2 (Homo sapiens, UniProt P14416)
Procedure: as §1

Dopamine D3 = Dopamine D3 (Homo sapiens, UniProt P35462)
Procedure: as §1

[1] = molecular target: Dopamine transporter (DAT) (Homo sapiens, UniProt Q01959)
Procedure: as §1

Histamine H3 = Histamine H3 (Homo sapiens, UniProt Q9Y5N1)
Procedure: as §1

Muscarinic M2 = Muscarinic M2 (Homo sapiens, UniProt P08172)
Procedure: as §1

NMDAR = tested on: NMDAR
Procedure: as §1

[2] = molecular target: Norepinephrine transporter (NET) (Homo sapiens, UniProt P23975)
Procedure: as §1

Serotonin 5-HT1A = Serotonin 5-HT1A (Homo sapiens, UniProt P08908)
Procedure: as §1

Serotonin 5-HT2A = Serotonin 5-HT2A (Homo sapiens, UniProt P28223)
Procedure: as §1

Serotonin 5-HT7 = Serotonin 5-HT7 (Homo sapiens, UniProt P34969)
Procedure: as §1

[3] = molecular target: Serotonin transporter (SERT) (Homo sapiens, UniProt P31645)
Procedure: as §1

Sigma-1 (σ1R) = Sigma-1 (σ1R) (Homo sapiens, UniProt Q99720)
Procedure: as §1

Sigma-2 (σ2R) = Sigma-2 (σ2R) (Homo sapiens, UniProt Q5BJF2)
Procedure: as §1

Tachykinin NK1 = Tachykinin NK1 (Homo sapiens, UniProt P25103)
Procedure: as §1

adrenergic alpha-1 = conditions: in the micromolar range
Procedure: as §1

D2R [4] = molecular target: D2R (Rattus norvegicus, UniProt P61169); assay: in vivo; conditions: po, read-out: % D2R occupancy
Excerpt: (§2) NHP σ1R occupancy data are extrapolated from in vitro binding investigations with 3H-fluspidine, known and specific σ1R tracer, against human σ1R.

σ1R [5] = molecular target: T1, σ1R (Homo sapiens, UniProt Q99720); assay: in vivo
Excerpt: as §2

σ1R [6] = molecular target: T2, σ1R (Rattus norvegicus, UniProt Q9R0C9); assay: in vivo; conditions: po, read-out: % σ1R occupancy
Excerpt: as §2

[7] = tested on: human subject afflicted with LID; conditions: greater than 100 mg/day oral, add-on to levodopa
Excerpt: The therapy provides efficacy in treating the patient without undue adverse side effects or affecting the safety of the treatment: […]

σ1R [8] = molecular target: T1, σ1R; conditions: human 67.5 mg bid; based on human PET data and PK profile
D2R [9] = molecular target: D2R (Homo sapiens, UniProt P14416); conditions: human 67.5 mg bid; based on human PET data and PK profile
[10] = tested on: human subject afflicted with LID; conditions: 45, 90, 135 or 180 mg/day oral, add-on to amantadine
σ1R [11] = molecular target: T1, σ1R; assay: in vivo; conditions: read-out: % σ1R occupancy
σ1R [12] = molecular target: T2, σ1R; conditions: 3 mg/kg PO; cited from earlier work
HD patients = conditions: cited from earlier work; for TMS change from baseline vs placebo: HD stage 1 (baseline TFC≥11), post hoc

T1 sequence (Q99720 whole entry): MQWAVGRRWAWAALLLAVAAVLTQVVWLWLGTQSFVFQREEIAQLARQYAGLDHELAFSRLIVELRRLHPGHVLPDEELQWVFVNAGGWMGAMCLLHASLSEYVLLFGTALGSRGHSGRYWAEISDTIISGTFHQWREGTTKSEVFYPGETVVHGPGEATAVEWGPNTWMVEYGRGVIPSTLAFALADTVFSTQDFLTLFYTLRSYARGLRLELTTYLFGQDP
Chain of Sigma-1 (σ1R) (Q99720 whole entry, species assumed): as the sequence (Q99720 whole entry) above
T2 sequence (Q9R0C9 whole entry): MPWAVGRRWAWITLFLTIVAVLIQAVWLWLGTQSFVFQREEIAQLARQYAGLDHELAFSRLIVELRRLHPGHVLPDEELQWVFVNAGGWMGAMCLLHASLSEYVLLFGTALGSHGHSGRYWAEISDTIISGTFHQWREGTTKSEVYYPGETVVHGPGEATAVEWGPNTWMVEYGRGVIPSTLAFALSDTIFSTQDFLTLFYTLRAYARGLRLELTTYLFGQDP
Chain of Dopamine D2 (P14416 whole entry): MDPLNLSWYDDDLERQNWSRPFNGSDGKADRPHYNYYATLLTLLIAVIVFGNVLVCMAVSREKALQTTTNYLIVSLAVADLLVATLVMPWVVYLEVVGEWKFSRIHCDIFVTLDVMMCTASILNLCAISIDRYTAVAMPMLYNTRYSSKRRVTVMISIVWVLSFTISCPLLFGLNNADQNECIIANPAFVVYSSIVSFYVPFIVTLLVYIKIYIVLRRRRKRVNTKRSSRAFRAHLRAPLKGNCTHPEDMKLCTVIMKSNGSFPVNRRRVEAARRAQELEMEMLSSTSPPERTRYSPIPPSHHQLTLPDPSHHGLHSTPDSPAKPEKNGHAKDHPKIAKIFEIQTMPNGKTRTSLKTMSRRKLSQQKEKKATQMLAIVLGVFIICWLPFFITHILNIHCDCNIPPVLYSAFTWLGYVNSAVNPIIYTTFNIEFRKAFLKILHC
Chain of Tachykinin NK1 (P25103 whole entry): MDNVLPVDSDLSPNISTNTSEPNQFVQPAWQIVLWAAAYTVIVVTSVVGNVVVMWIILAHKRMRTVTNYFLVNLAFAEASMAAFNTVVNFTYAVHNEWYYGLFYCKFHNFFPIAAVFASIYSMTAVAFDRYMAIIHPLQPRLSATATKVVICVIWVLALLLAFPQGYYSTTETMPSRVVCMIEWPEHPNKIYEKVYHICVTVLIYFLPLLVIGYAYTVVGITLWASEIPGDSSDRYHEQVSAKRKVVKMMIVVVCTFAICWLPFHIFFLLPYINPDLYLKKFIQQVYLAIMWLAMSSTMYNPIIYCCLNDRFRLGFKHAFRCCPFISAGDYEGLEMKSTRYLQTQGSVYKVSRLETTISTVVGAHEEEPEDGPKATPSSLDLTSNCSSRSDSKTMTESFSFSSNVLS
Chain of Norepinephrine transporter (NET) (P23975 whole entry, species assumed): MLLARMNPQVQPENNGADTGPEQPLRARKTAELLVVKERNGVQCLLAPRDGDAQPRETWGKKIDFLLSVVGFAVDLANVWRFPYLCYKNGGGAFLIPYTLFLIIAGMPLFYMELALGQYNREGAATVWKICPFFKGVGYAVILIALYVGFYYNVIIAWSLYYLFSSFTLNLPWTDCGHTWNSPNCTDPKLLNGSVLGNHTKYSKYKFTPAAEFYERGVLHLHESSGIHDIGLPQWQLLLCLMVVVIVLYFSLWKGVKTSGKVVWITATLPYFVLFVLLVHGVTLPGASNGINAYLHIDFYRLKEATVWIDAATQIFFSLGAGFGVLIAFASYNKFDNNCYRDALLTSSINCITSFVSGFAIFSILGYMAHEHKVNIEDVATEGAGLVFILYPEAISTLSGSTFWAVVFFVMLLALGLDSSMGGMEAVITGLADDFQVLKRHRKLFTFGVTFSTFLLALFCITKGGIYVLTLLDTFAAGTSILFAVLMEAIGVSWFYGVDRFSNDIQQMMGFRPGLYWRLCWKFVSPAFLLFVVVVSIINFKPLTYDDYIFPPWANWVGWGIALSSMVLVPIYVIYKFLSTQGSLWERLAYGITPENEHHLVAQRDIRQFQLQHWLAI
Chain of Serotonin 5-HT1A (P08908 whole entry): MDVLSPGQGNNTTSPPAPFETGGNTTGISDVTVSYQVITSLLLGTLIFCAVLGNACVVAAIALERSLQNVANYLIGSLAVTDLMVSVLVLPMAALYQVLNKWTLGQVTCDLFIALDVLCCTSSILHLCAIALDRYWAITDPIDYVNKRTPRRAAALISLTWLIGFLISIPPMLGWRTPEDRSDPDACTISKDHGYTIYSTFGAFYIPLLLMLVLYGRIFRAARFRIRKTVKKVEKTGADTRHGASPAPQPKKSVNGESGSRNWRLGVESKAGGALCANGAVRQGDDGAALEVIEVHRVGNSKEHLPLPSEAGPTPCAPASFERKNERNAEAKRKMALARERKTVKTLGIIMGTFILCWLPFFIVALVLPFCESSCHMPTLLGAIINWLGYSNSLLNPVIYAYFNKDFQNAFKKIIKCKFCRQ
Chain of 5-HT6 (P50406 whole entry, species assumed): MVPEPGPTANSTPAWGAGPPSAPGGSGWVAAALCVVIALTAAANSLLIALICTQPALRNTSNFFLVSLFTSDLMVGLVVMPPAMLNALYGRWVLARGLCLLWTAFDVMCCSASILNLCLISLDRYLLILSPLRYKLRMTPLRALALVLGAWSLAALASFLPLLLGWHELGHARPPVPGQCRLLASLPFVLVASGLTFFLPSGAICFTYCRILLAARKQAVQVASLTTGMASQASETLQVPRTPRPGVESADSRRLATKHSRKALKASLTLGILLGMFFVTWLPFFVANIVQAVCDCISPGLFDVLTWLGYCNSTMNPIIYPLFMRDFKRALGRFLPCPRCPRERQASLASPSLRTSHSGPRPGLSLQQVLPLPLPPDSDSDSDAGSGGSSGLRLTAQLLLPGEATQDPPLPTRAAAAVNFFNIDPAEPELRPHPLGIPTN
Chain of Adrenergic α2C (P18825 whole entry): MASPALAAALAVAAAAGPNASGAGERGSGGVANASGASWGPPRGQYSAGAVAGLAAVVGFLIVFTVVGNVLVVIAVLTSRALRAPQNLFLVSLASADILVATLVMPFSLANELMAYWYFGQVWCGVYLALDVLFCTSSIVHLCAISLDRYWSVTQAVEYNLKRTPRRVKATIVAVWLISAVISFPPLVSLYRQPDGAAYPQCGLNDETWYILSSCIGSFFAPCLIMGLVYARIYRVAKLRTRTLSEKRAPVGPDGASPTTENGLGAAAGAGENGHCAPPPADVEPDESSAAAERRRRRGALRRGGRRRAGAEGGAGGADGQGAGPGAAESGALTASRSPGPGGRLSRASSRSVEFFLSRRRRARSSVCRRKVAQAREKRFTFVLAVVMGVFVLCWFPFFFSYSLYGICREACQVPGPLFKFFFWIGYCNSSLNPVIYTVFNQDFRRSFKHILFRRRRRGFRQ
Chain of D2R (Rattus norvegicus, UniProt P61169) (P61169 whole entry): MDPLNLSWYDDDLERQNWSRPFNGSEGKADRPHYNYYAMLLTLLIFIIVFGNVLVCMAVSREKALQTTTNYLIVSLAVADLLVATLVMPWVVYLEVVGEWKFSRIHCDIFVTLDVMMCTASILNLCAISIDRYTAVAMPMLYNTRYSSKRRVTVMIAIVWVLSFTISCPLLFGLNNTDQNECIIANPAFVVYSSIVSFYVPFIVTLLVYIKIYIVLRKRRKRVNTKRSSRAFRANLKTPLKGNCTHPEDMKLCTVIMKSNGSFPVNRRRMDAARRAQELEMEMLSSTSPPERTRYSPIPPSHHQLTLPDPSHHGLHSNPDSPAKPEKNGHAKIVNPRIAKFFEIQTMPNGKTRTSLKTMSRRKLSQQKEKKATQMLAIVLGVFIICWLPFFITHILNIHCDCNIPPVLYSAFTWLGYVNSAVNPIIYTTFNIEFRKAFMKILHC
Chain of Serotonin 5-HT2A (P28223 whole entry): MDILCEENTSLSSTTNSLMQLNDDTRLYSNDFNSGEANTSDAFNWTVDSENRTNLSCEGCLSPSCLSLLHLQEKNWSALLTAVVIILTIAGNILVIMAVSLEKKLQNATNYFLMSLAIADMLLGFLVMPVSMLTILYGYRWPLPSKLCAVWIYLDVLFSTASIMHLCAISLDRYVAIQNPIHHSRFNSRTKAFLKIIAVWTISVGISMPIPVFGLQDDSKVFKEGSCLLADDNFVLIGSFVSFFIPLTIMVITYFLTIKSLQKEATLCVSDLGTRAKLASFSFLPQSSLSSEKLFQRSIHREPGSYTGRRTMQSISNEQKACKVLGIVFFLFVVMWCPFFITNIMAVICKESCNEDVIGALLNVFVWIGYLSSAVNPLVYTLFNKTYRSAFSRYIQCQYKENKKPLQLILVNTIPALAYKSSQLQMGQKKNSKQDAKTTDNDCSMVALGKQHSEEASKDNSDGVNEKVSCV
Chain of Sigma-2 (σ2R) (Q5BJF2 whole entry): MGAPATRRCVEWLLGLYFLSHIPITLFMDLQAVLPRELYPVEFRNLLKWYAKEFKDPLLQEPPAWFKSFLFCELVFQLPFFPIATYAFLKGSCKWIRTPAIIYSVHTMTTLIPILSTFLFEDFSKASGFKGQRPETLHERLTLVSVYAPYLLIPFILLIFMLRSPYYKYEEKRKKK
Chain of Serotonin 5-HT7 (P34969 whole entry): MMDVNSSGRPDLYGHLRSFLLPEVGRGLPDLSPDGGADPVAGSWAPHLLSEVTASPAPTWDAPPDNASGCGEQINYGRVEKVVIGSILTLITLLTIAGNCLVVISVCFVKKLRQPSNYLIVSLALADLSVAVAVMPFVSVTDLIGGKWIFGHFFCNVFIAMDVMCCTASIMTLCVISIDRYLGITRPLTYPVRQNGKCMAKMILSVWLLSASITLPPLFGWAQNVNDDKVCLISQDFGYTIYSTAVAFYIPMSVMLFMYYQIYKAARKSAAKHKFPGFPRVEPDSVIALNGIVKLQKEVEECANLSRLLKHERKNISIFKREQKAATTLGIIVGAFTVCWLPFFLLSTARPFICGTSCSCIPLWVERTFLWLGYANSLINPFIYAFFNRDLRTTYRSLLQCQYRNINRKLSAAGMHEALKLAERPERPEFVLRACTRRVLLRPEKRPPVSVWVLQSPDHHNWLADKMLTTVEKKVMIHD
Chain of D2R (Homo sapiens, UniProt P14416) (P14416 whole entry): as the sequence (P14416 whole entry) above

binding (5-HT6): no observed binding
nH (Hill coefficient) (Adrenergic α2A): 0.98
nH (Hill coefficient) (Adrenergic α2C): 0.76
binding against the dopamine D2 receptors (Dopamine D2): negligible or no binding
nH (Hill coefficient) (Dopamine D2): 0.94
nH (Hill coefficient) (Dopamine D3): 0.90
binding [1]: no observed binding
nH (Hill coefficient) (Histamine H3): 0.85
nH (Hill coefficient) (Muscarinic M2): 0.62
binding (NMDAR): no observed binding
binding [2]: no observed binding
nH (Hill coefficient) (Serotonin 5-HT1A): 0.72
nH (Hill coefficient) (Serotonin 5-HT2A): 0.81
nH (Hill coefficient) (Serotonin 5-HT7): 1.02
binding [3]: no observed binding
nH (Hill coefficient) (Sigma-1 (σ1R)): 0.87
affinity for S1R compared to Dopamine D2R (Sigma-1 (σ1R); S1R vs D2R): approximately 100 fold
nH (Hill coefficient) (Sigma-2 (σ2R)): 0.80
binding (Tachykinin NK1): no observed binding
binding (adrenergic alpha-1): low-affinity binding
receptor occupancy at 60 mg/kg (D2R [4]): 45%
% σ1R occupancy (σ1R [5]; NHP, 15 mg/kg PO, extrapolated from in vitro binding, 15 mg/kg): >80%
receptor occupancy at 7 mg/kg (σ1R [5]; po, read-out: % σ1R occupancy, NHP, 7 mg/kg PO, extrapolated from in vitro binding): 60 to 80%
receptor occupancy at 15 mg/kg (σ1R [5]; po, read-out: % σ1R occupancy, NHP, 15 mg/kg PO, extrapolated from in vitro binding): > 85%
receptor occupancy at 20 mg/kg (σ1R [5]; po, read-out: % σ1R occupancy, NHP, 20 mg/kg PO, extrapolated from in vitro binding): > 80%
receptor occupancy at 30 mg/kg (σ1R [5]; po, read-out: % σ1R occupancy, NHP, 30 mg/kg PO, extrapolated from in vitro binding): > 80%
receptor occupancy at 30 mg/kg (σ1R [5]; read-out: S1R occupancy (expected), high, effective dose (30 mg/kg, or 20 mg/kg in study 1)): > 80%
receptor occupancy at 20 mg/kg (σ1R [5]; read-out: S1R occupancy (expected), low, ineffective doses (7 and 15 mg/kg (study 1), 20 mg/kg in study 2)): > 80%
receptor occupancy at 60 mg/kg (σ1R [6]): > 85%
S1R occupancy (estimated) (σ1R [8]): fully occupy the S1Rs
occupancy of the dopamine receptors (DARs) (estimated) (D2R [9]): minimal occupancy
receptor occupancy at 45 mg (σ1R [11]): > 90%
receptor occupancy at 90 mg (σ1R [11]): > 90%
receptor occupancy at 150 mg (σ1R [11]): > 90%
Compound: CCCN1CCC(c2cccc(S(C)(=O)=O)c2)CC1 [pridopidine, 4-(3-(methylsulfonyl)phenyl)-1-propylpiperidine]
anti-parkinsonian benefit of L-DOPA [7]: does not affect the anti-parkinsonian benefit of L-DOPA
bad quality on-time evoked by levodopa [7]: improves the bad quality on-time
symptoms of dyskinesia [7]: effective in improving symptoms of dyskinesia
symptoms of dyskinesia [10]: effective (provides at least an additive effect or more than an additive effect)
% σ1R occupancy (σ1R [12]): 60%
difference in TFC score decline vs placebo (HD patients; 45 mg bid, 52 weeks, nominal p=0.003): 0.87 (95% confidence interval: 0.29-1.45)
TMS change from baseline vs placebo (HD patients; 45 mg bid, weeks 26 or 52): trend towards improvement
TMS change from baseline vs placebo (HD patients; 112.5 mg bid, 52 weeks): no improvement
TFC decline (HD patients; high dose (>90 mg bid)): failed to show improvement
TMS efficacy compared to placebo or the 45 mg bid dose (HD patients; high doses (≥67.5 bid)): none of the high doses of pridopidine (≥67.5 bid) showed improved efficacy
